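Five concentrations, 48 hours, 96-well plates. TGI: concentration producing complete growth inhibition.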
Columns and labels:
Assay in all cases: NCI anticancer screen, dose series, 48 h
[1] = test system: DU-145 prostate
[2] = test system: A498 renal
[3] = test system: UACC-62 melanoma
[4] = test system: SK-MEL-2 melanoma
[5] = test system: SF-539 CNS
[6] = test system: SK-OV-3 ovarian
[7] = test system: M14 melanoma
[8] = test system: MDA-N
[9] = test system: IGROV1 ovarian
[10] = test system: MOLT-4 leukemia
[11] = test system: UACC-257 melanoma
[12] = test system: OVCAR-3 ovarian
[13] = test system: SR leukemia

Compound | TGI [1] | TGI [2] | TGI [3] | TGI [4] | TGI [5] | TGI [6] | TGI [7] | TGI [8] | TGI [9] | TGI [10] | TGI [11] | TGI [12] | TGI [13]
COc1ccc(/C(Nc2ccccc2)=C(\CCl)c2ccccc2)cc1OC | > 100 µM | > 100 µM | > 100 µM | 79.9 µM | > 100 µM | > 100 µM | > 100 µM | > 100 µM | > 100 µM | > 100 µM | > 100 µM | > 100 µM | 
COC(=O)C1CCC(=O)N1CN(C(C)=O)c1cccc(O)c1 (centres undefined) | > 100 µM | > 100 µM | > 100 µM | > 100 µM | > 100 µM | > 100 µM | > 100 µM | > 100 µM | > 100 µM | > 100 µM | > 100 µM | > 100 µM | 
CC(=O)NC1C(OCC(=O)NCCNc2ccc([N+](=O)[O-])c3[nH]c4ccccc4c(=O)c23)C(O)C(CO)OC1(C)OCc1ccccc1 (centres undefined) | > 100 µM | > 100 µM | > 100 µM | > 100 µM | > 100 µM | > 100 µM | > 100 µM | > 100 µM | > 100 µM | > 100 µM | > 100 µM | > 100 µM | 
NNC(=O)C(=O)NN=C(C(Cl)(Cl)CO)C(Cl)(Cl)CO |  | > 100 µM | > 100 µM | > 100 µM | 61.2 µM | > 100 µM | 94 µM |  | > 100 µM | 50.7 µM | > 100 µM | 68 µM | 50.6 µM
CCOC(=O)/C(=C/c1ccccn1)C(=O)c1ccccc1 |  | 43.1 µM | 24 µM | 28.9 µM | 31 µM | 36.7 µM | 29.3 µM |  | 32.8 µM | 26 µM | 27.9 µM | 27.4 µM | 14.2 µM
O=C(c1ccccc1)C1(Br)S(=O)(=O)OCCOS1(=O)=O |  | > 100 µM | > 100 µM | > 100 µM | > 100 µM | > 100 µM | > 100 µM |  | > 100 µM | > 100 µM | > 100 µM | > 100 µM | > 100 µM
NNc1nnc(CCCCCCCCc2nnc(NN)n2N)n1N | > 100 µM | > 100 µM |  | > 100 µM | > 100 µM | > 100 µM | > 100 µM | > 100 µM | > 100 µM | > 100 µM | > 100 µM |  | 
Clc1ccc(C=Nc2ccc(Oc3ccc(Cl)cc3)c(Cl)c2)cc1 | > 100 µM |  | 41.5 µM | 54.2 µM | 35.4 µM | 50.2 µM | 46.9 µM | 38.8 µM | > 100 µM | > 100 µM | 77.5 µM | 40.4 µM | 
C=CCON(C(=O)OC(C)(C)C)C(C)(C)C | > 100 µM | > 100 µM | > 100 µM | > 100 µM |  | > 100 µM | > 100 µM |  | > 100 µM | > 100 µM | > 100 µM | > 100 µM | > 100 µM
COc1ccc2ccccc2c1C1=NC(C)(C)CO1 |  |  | > 100 µM | > 100 µM | > 100 µM | > 100 µM | > 100 µM |  | > 100 µM | > 100 µM | > 100 µM | > 100 µM | > 100 µM
CC1(C)O[C@@H]2[C@@H](COC(C)(C)O[C@H]2C2SCCCS2)O1 | > 100 µM | > 100 µM | > 100 µM | > 100 µM | > 100 µM | > 100 µM | > 100 µM | > 100 µM |  | > 100 µM |  | > 100 µM | 
COc1ccc(-c2c(C3=NCCCN3)nnn2-c2ccccc2)cc1 |  | > 100 µM | > 100 µM | > 100 µM | > 100 µM | > 100 µM | > 100 µM |  | > 100 µM | > 100 µM | > 100 µM | > 100 µM | > 100 µM
O=C(O)CCCc1ccc2c(c1)CC1(C2)Cc2cc3c(cc2C1)CCCC3 |  | 35.3 µM | > 100 µM | 35.3 µM | 3.82 µM | 52.9 µM | 30.9 µM | 39.9 µM | 41.4 µM | 5.4 µM | > 100 µM | 35.2 µM | 40.7 µM
C1CCC(N=C2N(C3CCCCC3)C(=NC3CCCCC3)N2C2CCCCC2)CC1 |  |  | > 100 µM | > 100 µM |  | > 100 µM | > 100 µM |  | > 100 µM | > 100 µM | > 100 µM | > 100 µM | > 100 µM
Cn1c2ccccc2c(=O)c2c(O)cc3c(c21)C1OCC(C)(O)C1O3 (centres undefined) | > 100 µM |  |  | > 100 µM | 56.2 µM | > 100 µM | > 100 µM | > 100 µM | 79.7 µM | > 100 µM | > 100 µM |  | > 100 µM
COc1cc2nc(Cl)nc(NS(=O)(=O)c3cc4ccccc4s3)c2cc1OC | 60.1 µM | 35.3 µM | 39.3 µM | 61.1 µM | > 100 µM | 98.5 µM | 85 µM |  | 71.8 µM |  | > 100 µM | 44.7 µM | 60.6 µM
C1CSCCSCCCS[C@@H]2CCCCC2SC1 (some centres undefined) |  | > 100 µM | > 100 µM | > 100 µM | > 100 µM | > 100 µM | > 100 µM |  | > 100 µM |  | > 100 µM | > 100 µM | 
Cc1cc2nc3c(C#N)c(-c4ccccc4)/c(=C\Nc4ccc(F)cc4)c(=O)n3c2cc1C |  | > 100 µM |  | > 100 µM | > 100 µM | > 100 µM | > 100 µM | > 100 µM | > 100 µM |  | > 100 µM | > 100 µM | 
Cc1cc(O)c(/C=N/C(N)=S)c(=O)o1 | > 100 µM |  | > 100 µM | > 100 µM | > 100 µM | > 100 µM | > 100 µM | > 100 µM | > 100 µM | > 100 µM | > 100 µM | > 100 µM | 
O=C1CC(c2ccc(Cl)cc2)=Nc2ccccc2N1 |  | > 100 µM | > 100 µM | > 100 µM | > 100 µM | 97.3 µM | > 100 µM |  | > 100 µM | > 100 µM | > 100 µM | > 100 µM | > 100 µM

Reference: PubChem BioAssay (NCI)
